In patent EP2650284A1, “Heterocyclic derivatives as metabotropic glutamate receptor modulators” (Merz Pharma GmbH & Co. KGaA, priority 2012, dated 2013) one finds r left shift and EC50 data, which are given here for eight compounds.

SMILES strings stand for the structures.

The target of the assay is T1, mGluR5 receptors (Rattus norvegicus, UniProt P31424).
T1 construct: Primary astrocyte cultures are prepared from cortices of newborn rats; endogenous in cells; host or cells: primary cortical astrocytes from Sprague-Dawley rat pups (2-4 d old)
T1 sequence (P31424 21-1203): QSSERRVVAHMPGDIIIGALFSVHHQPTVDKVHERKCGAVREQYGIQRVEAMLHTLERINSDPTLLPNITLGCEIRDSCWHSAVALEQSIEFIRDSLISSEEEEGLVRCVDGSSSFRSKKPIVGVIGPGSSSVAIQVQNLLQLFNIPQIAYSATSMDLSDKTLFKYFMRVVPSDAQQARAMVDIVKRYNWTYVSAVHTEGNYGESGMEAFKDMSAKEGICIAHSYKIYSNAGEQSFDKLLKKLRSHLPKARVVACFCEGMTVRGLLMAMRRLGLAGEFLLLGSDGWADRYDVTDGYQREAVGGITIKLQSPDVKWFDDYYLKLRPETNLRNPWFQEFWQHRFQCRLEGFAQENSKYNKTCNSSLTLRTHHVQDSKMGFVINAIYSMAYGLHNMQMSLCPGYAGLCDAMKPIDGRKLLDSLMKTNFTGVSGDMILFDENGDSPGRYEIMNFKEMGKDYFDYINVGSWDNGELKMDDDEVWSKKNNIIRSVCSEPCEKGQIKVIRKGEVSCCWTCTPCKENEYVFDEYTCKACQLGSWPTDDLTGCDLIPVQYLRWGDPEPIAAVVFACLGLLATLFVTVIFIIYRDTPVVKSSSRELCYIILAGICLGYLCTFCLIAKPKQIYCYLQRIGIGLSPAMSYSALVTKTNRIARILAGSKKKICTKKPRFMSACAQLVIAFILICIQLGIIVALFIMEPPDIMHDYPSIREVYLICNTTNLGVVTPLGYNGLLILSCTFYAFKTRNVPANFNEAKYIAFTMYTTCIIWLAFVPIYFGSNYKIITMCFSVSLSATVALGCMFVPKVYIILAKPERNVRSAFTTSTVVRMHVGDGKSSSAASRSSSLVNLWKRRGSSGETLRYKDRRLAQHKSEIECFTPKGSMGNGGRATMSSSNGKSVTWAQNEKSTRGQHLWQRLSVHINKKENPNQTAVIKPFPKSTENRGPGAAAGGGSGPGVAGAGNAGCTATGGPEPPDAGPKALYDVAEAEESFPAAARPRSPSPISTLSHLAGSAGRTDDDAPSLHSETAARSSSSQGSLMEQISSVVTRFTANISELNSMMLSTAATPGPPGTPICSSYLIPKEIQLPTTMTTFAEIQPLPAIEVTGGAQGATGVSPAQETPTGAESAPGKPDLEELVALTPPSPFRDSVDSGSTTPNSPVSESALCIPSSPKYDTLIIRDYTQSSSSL
The assay can be described thus: Cytosolic calcium studies with astrocytes (FLIPR), functional assay of mGluR5 receptors. The format is cell-based. As to conditions: for EC50: Table A1, positive modulators, fixed concentration of quisqualate (normally 10-30 nM), read-out: rEC50. Put shortly: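 Rat cortical primary astrocytes at 14-15 DIV, loaded with Ca-sensitive dye for 2 h at RT, pH 7.3 buffer; FLIPR fluorescence after L-quisqualate (100 nM), antagonists pre-incubated 10 min. PAMs: quisqualate curves ± 10 µM modulator, or modulator curves at fixed 10-30 nM quisqualate. Max-min responses as % control, logistic fit.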

Setting [1] is: Table A3 (SAMs / very weak PAMs), quisqualate EC50 shift with 10 µM modulator.
Where [2] appears, read: Table A1, left shift of quisqualate EC50 in the presence and absence of 10 µM modulator.

Take `CC(C)C(=O)N1CCc2ncc(C#Cc3ccccc3)cc2C1` [Example 33, 2-Methyl-1-(3-(phenylethynyl)-7,8-dihydro-1,6-naphthyridin-6(5H)-yl)propan-1-one]: the r left shift under setting [1] is 1.3-fold.

Regarding `CCCN1CC2(CCCc3ncc(C#Cc4cccc(C)c4)cc32)OC1=O` (racemic) [Example 64, (rac)-3-Propyl-3'-(m-tolylethynyl)-7',8'-dihydro-6'H-spiro[oxazolidine-5,5'-quinolin]-2-one], the r left shift under setting [1] is reported as 0.9-fold.

Regarding `CCOC(=O)N1CCc2ncc(C#Cc3ccccc3)cc2C1` [Example 40, Ethyl 3-(phenylethynyl)-7,8-dihydro-1,6-naphthyridine-6(5H)-carboxylate], under setting [1], the r left shift is 1.6-fold.

In the case of `CCCN1CC2(CCCc3ncc(C#Cc4cccc(F)c4)cc32)OC1=O` (racemic) [Example 66, (rac)-3'-((3-Fluorophenyl)ethynyl)-3-propyl-7',8'-dihydro-6'H-spiro[oxazolidine-5,5'-quinolin]-2-one], the r left shift under setting [1] is 1.3-fold.

Take `COC(=O)N1CC[C@H]2CCc3ncc(C#Cc4ccccc4)cc3[C@H]21` (racemic) [Example 29, (rac)-cis-Methyl 8-(phenylethynyl)-2,3,3a,4,5,9b-hexahydro-1H-pyrrolo[2,3-f]quinoline-1-carboxylate]: the r left shift under setting [1] is reported as 0.8-fold.

In the case of `CCCN1CCO[C@@H]2c3cc(C#Cc4ccccc4)cnc3CC[C@@H]21` (single isomer, unassigned) [Example 17, cis-9-(Phenylethynyl)-4-propyl-3,4,4a,5,6,10b-hexahydro-2H-[1,4]oxazino[2,3-f]quinoline], the EC50 came out at 67 nM. The r left shift under setting [2] is given as 3.5-fold. Further, the r left shift under setting [1] is given as 3.5-fold.

Take `CCCN1CCO[C@@H]2c3cc(C#Cc4cccc(C)c4)cnc3CC[C@@H]21` (racemic) [Example 21, (rac)-cis-4-Propyl-9-(m-tolylethynyl)-3,4,4a,5,6,10b-hexahydro-2H-[1,4]oxazino[2,3-f]quinoline]: the r left shift under setting [1] was 1.9-fold.

With `COC1CCCc2ncc(C#Cc3ccccc3)cc21` (single isomer, unassigned) [Example 2, 5-Methoxy-3-(phenylethynyl)-5,6,7,8-tetrahydroquinoline], the EC50 came out at 12.5 nM. For the same compound, the r left shift under setting [2] is 4.4-fold. Also, the r left shift under setting [1] is 4.4-fold.
